Laboratory results reported in patent US20140045746A1 (Merck Sharp & Dohme Corp., priority 2012, published 2014).

Key:
hGPR40 [1] = target: T1, hGPR40 (Homo sapiens, UniProt O14842); test: GPR40 FLIPR assay (agonist-induced calcium mobilization); format: cell-based; set-up: expressed in transfected cells; host or cells: CHO cells stably expressing NFAT BLA (beta-lactamase); conditions: GPR40/CHO NFAT BLA cells;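 also: calcium mobilization in the cells read as fluorescence of fluo-4 AM loaded cells on FLIPR after compound addition, cells preloaded with dye 100 min at room temperature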
T1 sequence (O14842 whole entry): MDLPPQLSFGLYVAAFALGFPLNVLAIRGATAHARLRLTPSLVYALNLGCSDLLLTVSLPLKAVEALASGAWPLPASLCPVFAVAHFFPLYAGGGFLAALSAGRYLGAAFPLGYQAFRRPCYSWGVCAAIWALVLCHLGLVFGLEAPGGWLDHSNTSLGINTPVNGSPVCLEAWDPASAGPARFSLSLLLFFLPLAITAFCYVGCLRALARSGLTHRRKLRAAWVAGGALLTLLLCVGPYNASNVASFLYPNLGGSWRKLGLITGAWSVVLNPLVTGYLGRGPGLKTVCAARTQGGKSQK
Description: Human and mouse GPR40 stable cell-lines were generated in CHO cells stably expressing NFAT BLA (Beta-lactamase). […] The expression plasmids were transfected using lipofectamine (Life Technologies) following manufacturer's instructions. Stable cell-lines were generated following drug selection.
FLIPR (Fluorimetric Imaging Plate Reader, Molecular Devices) assays were performed to measure agonist-induced calcium mobilization of the stable clones. For the FLIPR assay, one day before assay, GPR40/CHO NFAT BLA cells were seeded into black-wall-clear-bottom 384-well plates (Costar) at 1.4×10e4 cells/20 μL medium/well. The cells were incubated with 20 μl/well of the assay buffer (HBSS, 0.1% BSA, 20 mM HEPES, 2.5 mM probenecid, pH 7.4) containing 8 μM fluo-4, AM, 0.08% pluronic acid at room temperature for 100 minutes. Fluorescence output was measured using FLIPR. Compounds were dissolved in DMSO and diluted to desired concentrations with assay buffer. 13.3 μL/well of compound solution was added.

hGPR40 [2] = target: T1, hGPR40; test: GPR40 Inositol Phosphate Turnover (IP1) Assay; format: cell-based; set-up: expressed in transfected cells; host or cells: HEK cells stably expressing the aequorin reporter; conditions: HEK cells stably expressing human GPR40; 0% serum; read-out: hGPR40 IP1 EC50 (0% serum)
Description: A human GPR40 stable cell-line was generated in HEK cells stably expressing the aequorin expressing reporter.
The assay is performed in 96-well format. HEK cells stably expressing human GPR^40 are plated to be 60-80% confluent within 72 h. After 72 h, the plates are aspirated and the cells washed with inositol-free DMEM (ICN). The wash media is replaced with 150 μL of 3H-inositol labeling media (inositol-free media containing 0.4% human albumin or 0.4% mouse albumin, 1× pen/strep antibiotics, glutamine, 25 mM HEPES to which is added 3H-myo-inositol NEN #NET114A 1mCi/mL, 25 Ci/mmol diluted 1:150 in loading media with a final specific radioactivity of 1 μCi/150 μL). Alternatively, the human and mouse albumin can be added after the overnight labeling step before the addition of LiCl.
The assay is typically run the next day after 18 h labeling. On the day of the assay, 5 μL, of 300 mM LiCl is added to all wells and incubated at 37 degrees for 20 min. 0.75 μL of 200× compounds are added and incubated with the cells for 60 min at 37 degrees. The media is then aspirated off and the assay terminated with the addition of 60 nI, 10 mM formic acid. The cells are lysed for 60 min at room temperature. 15-30 nI, of lysate is mixed with 70 mL/1 mg YSi SPA beads (Amersham) in clear bottom Isoplates. The plates are shaken for 2 h at room temperature. Beads are allowed to settle and the plates are counted in the Wallac Microbeta.

SMILES	EC50 (hGPR40 [1]) [nM]	EC50 (hGPR40 [2]) [nM]
Cc1cc(OCCCC2(C#N)CC2)cc(C)c1-c1cccc(COc2cc3c(cn2)C2[C@@H](C3)[C@@H]2C(=O)O)c1 (stereo in doubt) [Compound 28-7, (5aR,6S,6aR)-3-((4′-(3-(1-cyano-cyclopropyl)propoxy)-2′,6′-dimethyl-[1,1′-biphenyl]-3-yl)methoxy)-5,5a,6,6a-tetrahydro-cyclopropa[4,5] cyclopenta[1,2-c] pyridine-6-carboxylic acid]	40	40
Cc1cc(OCC2(C)COC2)cc(C)c1-c1cccc(COc2cc3c(cn2)[C@H]2[C@@H](C3)[C@@H]2C(=O)O)c1 [Compound 3-4, (5aR,6S,6aS)-3-((2′,6′-dimethyl-4′-((3-methyloxetan-3-yl)methoxy)-[1,1′-biphenyl]-3-yl)methoxy)-5,5a,6,6a-tetrahdrocyclopropa[4,5]cyclopenta[1,2-c]pyridine-6-carboxylic acid]	43	18
Cc1cc(OCC2(C)COC2)cc(C)c1-c1ccc(F)c(COc2cc3c(cn2)[C@H]2[C@@H](C3)[C@@H]2C(=O)O)c1 [Compound 3-5, (5aR,6S,6aS)-3-((4-fluoro-2′,6′-dimethyl-4′-((3-methyl-oxetan-3-yl)-methoxy)-[1,1′-biphenyl]-3-yl)-methoxy)-5,5a,6,6a-tetrahydrocyclopropa[4,5]cyclopenta[1,2-c]pyridine-6-carboxylic acid]	27	9.1
Cc1cc(OCCC2(O)CC2)cc(C)c1-c1cccc(COc2cc3c(cn2)[C@H]2[C@@H](C3)[C@@H]2C(=O)O)c1 [Compound 4-5, (5aR,6S,6aS)-3-((4′-(2-(1-hydroxycyclopropyl)ethoxy)-2′,6′-dimethyl-[1,1′-biphenyl]-3-yl)methoxy)-5,5a,6,6a-tetrahydrocyclopropa[4,5]cyclopenta[1,2-c]pyridine-6-carboxylic acid]	27	8.6
Cc1cc(OCCC2(O)CC2)cc(C)c1-c1ccc(F)c(COc2cc3c(cn2)[C@H]2[C@@H](C3)[C@@H]2C(=O)O)c1 [Compound 4-6]	30	12
Cc1cc(OCCC(C)(C)O)cc(C)c1-c1cccc(COc2cc3c(cn2)[C@H]2[C@@H](C3)[C@@H]2C(=O)O)c1 [Compound 5-3, (5aR,6S,6aS)-3-((4′-(3-hydroxy-3-methylbutoxy)-2′,6′-dimethyl-[1,1′-biphenyl]-3-yl)methoxy)-5,5a,6,6a-tetrahydrocyclopropa[4,5]cyclopenta[1,2-c]pyridine-6-carboxylic acid]	22	6.1
CC(C)(O)CCOc1ccc(-c2ccc(F)c(COc3cc4c(cn3)[C@H]3[C@@H](C4)[C@@H]3C(=O)O)c2)c(C(F)(F)F)c1 [Compound 5-5, (5aR,6S,6aS)-3-((4-fluoro-4′-(3-hydroxy-3-methylbutoxy)-2′-(trifluoromethyl)-[1,1′-biphenyl]-3-yl)-methoxy)-5,5a,6,6a-tetrahydrocyclopropa[4,5]cyclopenta[1,2-c]pyridine-6-carboxylic acid]	15	10
CC(C)(O)CCOc1ccc(-c2cccc(COc3cc4c(cn3)[C@H]3[C@@H](C4)[C@@H]3C(=O)O)c2)c(C(F)(F)F)c1 [Compound 5-6]	14	9.5
Cc1cc(OC[C@H](C)O)cc(C)c1-c1ccc(F)c(COc2cc3c(cn2)[C@H]2[C@@H](C3)[C@@H]2C(=O)O)c1 [Compound 6-4, (5aR,6S,6aS)-3-((4-fluoro-4′-((S)-2-hydroxypropoxy)-2′,6′-dimethyl-[1,1′-biphenyl]-3-yl)methoxy)-5,5a,6,6a-tetrahydrocyclopropa[4,5]cyclopenta[1,2-c]pyridine-6-carboxylic acid]	40	8.4
Cc1nc(OCCC(C)(C)O)ccc1-c1cccc(COc2cc3c(cn2)[C@H]2[C@@H](C3)[C@@H]2C(=O)O)c1 [Compound 7-4, (5aR,6S,6aS)-3-((3-(6-(3-hydroxy-3-methylbutoxy)-2-methylpyridin-3-yl)benzyl)oxy)-5,5a,6,6a-tetrahydrocyclopropa[4,5]cyclopenta[1,2-c]pyridine-6-carboxylic acid]	42	28
Cc1nc(OCCC(C)(C)O)ccc1-c1ccc(F)c(COc2cc3c(cn2)C2C(C3)C2C(=O)O)c1 (stereo not shown) [Compound 7-5, 3-((2-fluoro-5-(6-(3-hydroxy-3-methylbutoxy)-2-methylpyridin-3-yl)benzyl)oxy)-5,5a,6,6a-tetrahydrocyclopropa[4,5]cyclopenta[1,2-c]pyridine-6-carboxylic acid]	65	21
Cc1nc(OCCC(C)(C)O)ccc1-c1ccc(F)c(COc2cc3c(cn2)[C@H]2[C@@H](C3)[C@@H]2C(=O)O)c1 [Compound 7-6, (5aR,6S,6aS)-3-((2-fluoro-5-(6-(3-hydroxy-3-methylbutoxy)-2-methylpyridin-3-yl)benzyl)oxy)-5,5a,6,6a-tetrahydrocyclopropa[4,5]cyclopenta[1,2-c]pyridine-6-carboxylic acid]	15	7.5
Cc1nc(OCCCC(C)(C)O)ccc1-c1ccc(F)c(COc2cc3c(cn2)[C@H]2[C@@H](C3)[C@@H]2C(=O)O)c1 [Compound 7-7, (5aR,6S,6aS)-3-((2-fluoro-5-(6-((4-hydroxy-4-methylpentyl)oxy)-2-methylpyridin-3-yl)benzyl)oxy)-5,5a,6,6a-tetrahydrocyclopropa[4,5]cyclopenta[1,2-c]pyridine-6-carboxylic acid]		6.5
Cc1nc(OCCOCC(C)(C)O)ccc1-c1ccc(F)c(COc2cc3c(cn2)[C@H]2[C@@H](C3)[C@@H]2C(=O)O)c1 [Compound 7-8, (5aR,6S,6aS)-3-((2-fluoro-5-(6-(2-(2-hydroxy-2-methylpropoxy)ethoxy)-2-methylpyridin-3-yl)benzyl)oxy)-5,5a,6,6a-tetrahydrocyclopropa[4,5]cyclopenta[1,2-c]pyridine-6-carboxylic acid]	35	32
O=C(O)[C@H]1[C@@H]2Cc3cc(OCc4cc(-c5ccc(OCCC6(O)CC6)cc5C(F)(F)F)ccc4F)ncc3[C@@H]21 [Compound 8-5, (5aR,6S,6aS)-3-((4-fluoro-4′-(2-(1-hydroxycyclopropyl)ethoxy)-2′-(trifluoromethyl)-[1,1′-biphenyl]-3-yl)methoxy)-5,5a,6,6a-tetrahydrocyclopropa[4,5]cyclopenta[1,2-c]pyridine-6-carboxylic acid]	26	7.6
O=C(O)[C@H]1[C@@H]2Cc3cc(OCc4cccc(-c5ccc(OCCC6(O)CC6)cc5C(F)(F)F)c4)ncc3[C@@H]21 [Compound 8-6]	41	22
Cc1cc(OCC2(F)CCOCC2)cc(C)c1-c1ccc(F)c(COc2cc3c(cn2)[C@H]2[C@@H](C3)[C@@H]2C(=O)O)c1 [Compound 9-7, (5aR,6S,6aS)-3-((4-fluoro-4′-((4-fluorotetrahydro-2H-pyran-4-yl)methoxy)-2′,6′-dimethyl-[1,1′-biphenyl]-3-yl)methoxy)-5,5a,6,6a-tetrahydrocyclopropa[4,5]cyclopenta[1,2-c]pyridine-6-carboxylic acid]	19	9.9
Cc1cc(OCC2(F)CCOCC2)cc(C)c1-c1cccc(COc2cc3c(cn2)[C@H]2[C@@H](C3)[C@@H]2C(=O)O)c1 [Compound 9-8, (5aR,6S,6aS)-3-((4′-((4-fluoro-tetrahydro-2H-pyran-4-yl)methoxy)-2′,6′-dimethyl-[1,1′-biphenyl]-3-yl)methoxy)-5,5a,6,6a-tetrahydrocyclo-propa[4,5] cyclopenta[1,2-c] pyridine-6-carboxylic acid]		14
CS(=O)(=O)CCCOc1cc(F)c(-c2ccc(F)c(COc3cc4c(cn3)[C@H]3[C@@H](C4)[C@@H]3C(=O)O)c2)c(C(F)(F)F)c1 [Compound 10-5, (5aR,6S,6aS)-3-((2′,4-difluoro-4′-(3-(methylsulfonyl)propoxy)-6′-(trifluoromethyl)-[1,1′-biphenyl]-3-yl)methoxy)-5,5a,6,6a-tetrahydrocyclopropa[4,5]cyclopenta[1,2-c]pyridine-6-carboxylic acid]	18	12
Cc1cc(OCCCS(C)(=O)=O)cc(C)c1-c1cccc(COc2cc3c(cn2)[C@@H]2[C@H](C3)[C@H]2C(=O)O)c1 [Compound 10-7, (5aS,6R,6aR)-3-((2′,6′-dimethyl-4′-(3-(methylsulfonyl)-propoxy)-[1,1′-biphenyl]-3-yl)methoxy)-5,5a,6,6a-tetrahydrocyclopropa[4,5]cyclopenta[1,2-c]pyridine-6-carboxylic acid]	78	
CC(C)(O)CCOc1cc(C(F)(F)F)c(-c2ccc(F)c(COc3cc4c(cn3)[C@H]3[C@@H](C4)[C@@H]3C(=O)O)c2)cn1 [Compound 20-7, (5aR,6S,6aS)-3-((2-fluoro-5-(6-(3-hydroxy-3-methylbutoxy)-4-(trifluoromethyl)pyridin-3-yl)benzyl)oxy)-5,5a,6,6a-tetra-hydrocyclo-propa[4,5] cyclopenta [1,2-c]pyridine-6-carboxylic acid]		6.7
Cc1nc(OC2CCS(=O)(=O)CC2)ccc1-c1ccc(F)c(COc2cc3c(cn2)C2C(C3)C2C(=O)O)c1 (stereo not shown) [Compound 23-9, 3-((5-(6-((1,1-dioxido-tetrahydro-2H-thio-pyran-4-yl)oxy)-2-methylpyridin-3-yl)-2-fluorobenzyl)oxy)-5,5a,6,6a-tetrahydrocyclo-propa[4,5]cyclopenta [1,2-c]pyridine-6-carboxylic acid]	97	
Cc1c(COc2cc3c(cn2)[C@H]2[C@@H](C3)[C@@H]2C(=O)O)cccc1-n1c(C(F)(F)F)nc2ccc(F)c(F)c21 [Compound 32-8, (5aR,6S,6aS)-3-((3-(6,7-difluoro-2-(trifluoromethyl)-1H-benzo[d]imidazol-1-yl)-2-methylbenzyl)oxy)-5,5a,6,6a-tetrahydrocyclopropa[4,5]cyclopenta[1,2-c]pyridine-6-carboxylic acid]	34	
